Legend:
[1] = target: PLA2g7 (Mus musculus, UniProt Q60963); experiment: biochemical
[2] = target: BAT5 (60 kDa hydrolase) (Mus musculus, UniProt Q9Z1Q2); type: biochemical
[3] = tested on: brain serine hydrolases; type: biochemical, mouse
[4] = target: FAAH (Mus musculus, UniProt O08914); experiment: biochemical
[5] = target: BAT5 (Mus musculus, UniProt Q9Z1Q2); experiment: biochemical
[6] = target: KIAA1363 (Mus musculus, UniProt Q8BLF1); experiment: biochemical
[7] = target: ABHD12 (Mus musculus, UniProt Q99LR1); experiment: biochemical
Chain of ABHD12 (Q99LR1 whole entry): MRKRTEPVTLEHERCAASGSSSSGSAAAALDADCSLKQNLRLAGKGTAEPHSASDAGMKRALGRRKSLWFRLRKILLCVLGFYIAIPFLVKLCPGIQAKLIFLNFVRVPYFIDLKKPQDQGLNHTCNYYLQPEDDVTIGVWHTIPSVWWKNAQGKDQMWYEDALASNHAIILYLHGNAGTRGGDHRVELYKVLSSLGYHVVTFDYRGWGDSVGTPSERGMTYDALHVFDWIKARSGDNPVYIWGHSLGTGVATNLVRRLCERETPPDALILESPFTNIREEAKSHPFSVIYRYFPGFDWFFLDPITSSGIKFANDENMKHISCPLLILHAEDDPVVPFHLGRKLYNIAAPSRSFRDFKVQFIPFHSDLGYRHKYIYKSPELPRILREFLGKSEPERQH

Chain of BAT5 (Q9Z1Q2 whole entry): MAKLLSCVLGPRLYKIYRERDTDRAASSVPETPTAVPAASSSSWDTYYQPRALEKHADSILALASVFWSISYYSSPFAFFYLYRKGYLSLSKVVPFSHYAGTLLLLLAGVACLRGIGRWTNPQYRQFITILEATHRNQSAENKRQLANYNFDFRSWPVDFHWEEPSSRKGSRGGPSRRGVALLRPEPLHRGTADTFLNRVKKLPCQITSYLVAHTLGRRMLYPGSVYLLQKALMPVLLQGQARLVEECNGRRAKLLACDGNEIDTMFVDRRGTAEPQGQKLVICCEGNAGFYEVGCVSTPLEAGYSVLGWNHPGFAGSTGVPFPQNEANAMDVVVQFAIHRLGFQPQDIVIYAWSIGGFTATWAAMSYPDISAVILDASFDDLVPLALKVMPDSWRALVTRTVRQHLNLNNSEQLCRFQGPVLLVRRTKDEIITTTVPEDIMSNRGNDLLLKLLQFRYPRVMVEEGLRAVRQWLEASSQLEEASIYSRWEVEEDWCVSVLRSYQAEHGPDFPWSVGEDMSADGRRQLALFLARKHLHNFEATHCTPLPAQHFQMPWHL
Chain of PLA2g7 (Q60963 22-440): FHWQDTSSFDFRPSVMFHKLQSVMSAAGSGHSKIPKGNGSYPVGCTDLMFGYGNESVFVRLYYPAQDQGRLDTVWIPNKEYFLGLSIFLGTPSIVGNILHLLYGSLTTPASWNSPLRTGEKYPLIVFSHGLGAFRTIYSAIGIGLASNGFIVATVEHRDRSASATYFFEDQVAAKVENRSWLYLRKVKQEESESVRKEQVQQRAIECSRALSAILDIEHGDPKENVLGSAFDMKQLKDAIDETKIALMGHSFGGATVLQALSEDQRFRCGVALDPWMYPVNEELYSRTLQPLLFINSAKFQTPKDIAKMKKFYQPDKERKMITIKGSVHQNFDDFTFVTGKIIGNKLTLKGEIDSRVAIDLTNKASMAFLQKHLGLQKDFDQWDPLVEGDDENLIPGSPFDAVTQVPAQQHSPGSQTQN
Chain of KIAA1363 (Q8BLF1 whole entry): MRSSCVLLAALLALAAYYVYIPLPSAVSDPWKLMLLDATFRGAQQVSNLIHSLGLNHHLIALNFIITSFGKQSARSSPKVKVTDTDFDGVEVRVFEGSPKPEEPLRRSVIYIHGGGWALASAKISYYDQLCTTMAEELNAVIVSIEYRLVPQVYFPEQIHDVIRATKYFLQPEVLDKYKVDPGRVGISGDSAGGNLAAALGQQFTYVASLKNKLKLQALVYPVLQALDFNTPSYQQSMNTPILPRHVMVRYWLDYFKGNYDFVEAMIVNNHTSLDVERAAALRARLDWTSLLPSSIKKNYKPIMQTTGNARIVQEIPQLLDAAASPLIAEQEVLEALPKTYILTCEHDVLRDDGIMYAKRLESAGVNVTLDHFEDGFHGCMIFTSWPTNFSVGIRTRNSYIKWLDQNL
Chain of BAT5 (60 kDa hydrolase) (Q9Z1Q2 whole entry): as the sequence (Q9Z1Q2 whole entry) above
Chain of FAAH (O08914 whole entry): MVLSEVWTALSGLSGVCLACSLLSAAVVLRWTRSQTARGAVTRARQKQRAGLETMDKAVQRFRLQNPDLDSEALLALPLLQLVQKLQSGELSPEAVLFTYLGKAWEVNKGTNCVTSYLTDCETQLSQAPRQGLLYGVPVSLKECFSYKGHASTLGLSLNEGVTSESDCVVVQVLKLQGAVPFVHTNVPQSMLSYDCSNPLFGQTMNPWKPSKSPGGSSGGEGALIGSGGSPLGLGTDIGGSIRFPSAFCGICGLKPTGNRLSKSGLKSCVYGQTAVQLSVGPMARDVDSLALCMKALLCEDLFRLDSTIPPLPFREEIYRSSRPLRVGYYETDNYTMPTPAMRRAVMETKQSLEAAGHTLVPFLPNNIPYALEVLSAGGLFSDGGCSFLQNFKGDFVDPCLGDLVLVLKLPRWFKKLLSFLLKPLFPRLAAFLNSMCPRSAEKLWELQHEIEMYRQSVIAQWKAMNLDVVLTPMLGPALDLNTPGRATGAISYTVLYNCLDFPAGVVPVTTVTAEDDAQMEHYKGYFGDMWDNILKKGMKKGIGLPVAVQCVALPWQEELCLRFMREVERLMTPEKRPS

Compound | IC50 [1] [µM] | inhibition of recombinant PLA2g7 (in words) [1] | sensitivity of 60 kDa hydrolase (tentatively BAT5) to inhibitor [2] | number of hydrolase activities whose labeling is blocked [3] | IC50 [4] [µM] | inhibition of recombinant FAAH (in words) [4] | IC50 [5] [µM] | inhibition of recombinant BAT5 (in words) [5] | IC50 [6] [µM] | inhibition of recombinant KIAA1363 (in words) [6] | IC50 [7] [µM]
O=C(NCCCCCCNC(=O)ON=C1CCCCC1)ON=C1CCCCC1 [RHC80267] | 10 to 70 | inhibited | sensitive | three | 10 to 70 | inhibited | 10 to 70 | inhibited | 10 to 70 | inhibited | –
CCCCCCCCCCC[C@@H](C[C@@H]1OC(=O)[C@H]1CCCCCC)OC(=O)[C@H](CC(C)C)NC=O [THL, tetrahydrolipstatin] | < 0.1 | inhibited | sensitive | – | – | – | < 0.1 | inhibited | – | – | < 0.1

Reference: paper PMC2634297 (Bioorganic & medicinal chemistry letters, 2008)
